According to PMC9959982 (International Journal of Molecular Sciences, 2023):
Like-named read-outs stand apart in the source and are kept apart here.

What was measured:
EV-A71 BrCr strain [1] = assay: Virus-induced cell death assay, EV-A71 BrCr lab strain in RD cells; format: cell-based, Enterovirus A71; conditions: for EC50: EV-A71 BrCr (wild type)
in vitro = conditions: human
MT-4 cells = assay: Cytotoxicity in MT-4 cells (MTS/PES); format: cell-based; conditions: 50% reduction in cell viability, 5 days
EV-A71 VP1_S184T = format: cell-based, Enterovirus A71; conditions: VP1_S184T mutant
rhabdosarcoma (RD) cells = assay: Adverse effect on uninfected RD cells (MTS/PMS); conditions: RD cells
EV-A71 VP1_S184T_P246S = format: cell-based, Enterovirus A71; conditions: VP1_S184T_P246S double mutant
EV-A71 VP1_P246S = format: cell-based, Enterovirus A71; conditions: VP1_P246S mutant
HIV-1 (NL4.3) [2] = conditions: printed in Figure 1, prototypes of previous work; cited from earlier work
EV-A71 BrCr strain [3] = conditions: Figure 1; read-out: EV71 EC50; cited from earlier work
[4] = Cytotoxicity in MT-4 cells (MTS/PES); format: cell-based; conditions: human, 50% reduction in cell viability
HIV-2 (ROD) = assay: Inhibition of HIV-induced cytopathic effect in MT-4 cells, HIV-2; format: cell-based
HIV-1 (NL4.3) [5] = assay: microbe, parasite or virus in culture; format: cell-based; conditions: for EC50: virus-induced cytopathic effect reduced by 50%
[6] = Adverse effect on uninfected RD cells (MTS/PMS); conditions: human, uninfected rhabdosarcoma (RD) cells
[7] = Enterovirus A, EVA71, RD, RD cells
[8] = Human immunodeficiency virus 2, MT4, virus-induced cytopathic effect reduced by 50%
[9] = Human immunodeficiency virus 1, MT4, MT-4 cells

Question: With `CCOC(=O)c1ccc(OCCC2CCN(c3ccc(C)nn3)CC2)cc1` [Pirodavir, pirodavir, reference compound] as the molecule, how does the “SI selectivity index (CC50/EC50)” value (EV-A71 BrCr strain [1]) read?
Answer: >333

Question: And the EC50 (EV-A71 BrCr strain [1]; [7])?
Answer: 0.3 ± 0.001 µM

Question: What about the CC50 at 3 days (in vitro) of the same molecule?
Answer: > 100 µM

Question: With `O=C(CCOCC(COCCC(=O)NC(Cc1c(CCCNC(=O)Nc2cc(C(=O)O)cc(C(=O)O)c2)[nH]c2ccccc12)C(=O)O)(COCCC(=O)NC(Cc1c(CCCNC(=O)Nc2cc(C(=O)O)cc(C(=O)O)c2)[nH]c2ccccc12)C(=O)O)COCCC(=O)NC(Cc1c(CCCNC(=O)Nc2cc(C(=O)O)cc(C(=O)O)c2)[nH]c2ccccc12)C(=O)O)NC(Cc1c(CCCNC(=O)Nc2cc(C(=O)O)cc(C(=O)O)c2)[nH]c2ccccc12)C(=O)O` (stereo not shown) [Compound 23] as the molecule, how does the CC50 (MT-4 cells) read?
Answer: > 50 µM

Question: And the EC50 (EV-A71 VP1_S184T)?
Answer: 0.41 ± 0.03 µM

Question: And the CC50 (rhabdosarcoma (RD) cells)?
Answer: > 50 µM

Question: And the EC50 (EV-A71 VP1_S184T_P246S)?
Answer: 0.58 ± 0.2 µM

Question: And the EC50 (EV-A71 VP1_P246S)?
Answer: 0.22 ± 0.01 µM

Question: With `O=C(O)CCCCCCc1[nH]c2ccccc2c1C[C@H](NC(=O)CCOCC(COCCC(=O)N[C@@H](Cc1c(CCCCCCC(=O)O)[nH]c2ccccc12)C(=O)O)(COCCC(=O)N[C@H](Cc1c(CCCCCCC(=O)O)[nH]c2ccccc12)C(=O)O)COCCC(=O)N[C@H](Cc1c(CCCCCCC(=O)O)[nH]c2ccccc12)C(=O)O)C(=O)O` [Compound 33] as the molecule, how does the CC50 (MT-4 cells) read?
Answer: > 50 µM

Question: What about the CC50 (rhabdosarcoma (RD) cells) of the same molecule?
Answer: > 100 µM

Question: For `O=C(CCC(CCC(=O)NC(Cc1c(-c2cc(C(=O)O)cc(C(=O)O)c2)[nH]c2ccccc12)C(=O)O)(CCC(=O)NC(Cc1c(-c2cc(C(=O)O)cc(C(=O)O)c2)[nH]c2ccccc12)C(=O)O)[N+](=O)[O-])NC(Cc1c(-c2cc(C(=O)O)cc(C(=O)O)c2)[nH]c2ccccc12)C(=O)O` (stereo not shown) [AL-470], which EC50 (HIV-1 (NL4.3) [2]) is on record?
Answer: 0.27 ± 0.12 µM

Question: What about the EC50 (EV-A71 BrCr strain [3]) of the same molecule?
Answer: 0.35 ± 0.03 µM

Question: Which CC50 (MT-4 cells) does the source give for `O=C(CCOCC(COCCC(=O)NC(Cc1c(CCCCCNC(=O)Nc2cc(C(=O)O)cc(C(=O)O)c2)[nH]c2ccccc12)C(=O)O)(COCCC(=O)NC(Cc1c(CCCCCNC(=O)Nc2cc(C(=O)O)cc(C(=O)O)c2)[nH]c2ccccc12)C(=O)O)COCCC(=O)NC(Cc1c(CCCCCNC(=O)Nc2cc(C(=O)O)cc(C(=O)O)c2)[nH]c2ccccc12)C(=O)O)NC(Cc1c(CCCCCNC(=O)Nc2cc(C(=O)O)cc(C(=O)O)c2)[nH]c2ccccc12)C(=O)O` (stereo not shown) [Compound 24] here?
Answer: 30.9 ± 0.98 µM

Question: What about the CC50 (rhabdosarcoma (RD) cells) of the same molecule?
Answer: > 100 µM

Question: For `CN[C@@H]1[C@H](O[C@@H]2OC[C@@H](O)[C@H](O)[C@H]2O)[C@@H](O)[C@H](O[C@H]2c3cc(C)c(C(=O)N[C@H](C)C(=O)O)c(O)c3-c3c(cc4c(c3O)C(=O)c3cc(OC)cc(O)c3C4=O)[C@@H]2O)O[C@@H]1C` [PRM-A, pradimicin A], which CC50 at 5 days [4] is on record?
Answer: > 100 µM

Question: What about the EC50 (HIV-2 (ROD); [8]) of the same molecule?
Answer: 5.9 ± 3.7 µM

Question: And the EC50 (HIV-1 (NL4.3) [5]; [9])?
Answer: 3.3 ± 1.2 µM

Question: What about the “SI selectivity index (CC50/EC50)” value (HIV-1 (NL4.3) [5]; MT-4 cells, Table 1) of the same molecule?
Answer: >30.3

Question: With `O=C(CCOCC(COCCC(=O)NC(Cc1c(CCCCCCCCNC(=O)Nc2cc(C(=O)O)cc(C(=O)O)c2)[nH]c2ccccc12)C(=O)O)(COCCC(=O)NC(Cc1c(CCCCCCCCNC(=O)Nc2cc(C(=O)O)cc(C(=O)O)c2)[nH]c2ccccc12)C(=O)O)COCCC(=O)NC(Cc1c(CCCCCCCCNC(=O)Nc2cc(C(=O)O)cc(C(=O)O)c2)[nH]c2ccccc12)C(=O)O)NC(Cc1c(CCCCCCCCNC(=O)Nc2cc(C(=O)O)cc(C(=O)O)c2)[nH]c2ccccc12)C(=O)O` (stereo not shown) [Compound 25] as the molecule, how does the CC50 (MT-4 cells) read?
Answer: > 50 µM

Question: What about the CC50 (rhabdosarcoma (RD) cells) of the same molecule?
Answer: > 100 µM

Question: With dextran sulfate-5000 [DS-5000] as the molecule, how does the EC50 (HIV-2 (ROD); virus-induced cytopathic effect reduced by 50%) read?
Answer: 0.03 ± 0.01 µM

Question: What about the EC50 (HIV-1 (NL4.3) [5]; MT-4 cells) of the same molecule?
Answer: 0.07 ± 0.02 µM

Question: For `O=C(O)CCCc1[nH]c2ccccc2c1C[C@H](NC(=O)CCOCC(COCCC(=O)N[C@@H](Cc1c(CCCC(=O)O)[nH]c2ccccc12)C(=O)O)(COCCC(=O)N[C@H](Cc1c(CCCC(=O)O)[nH]c2ccccc12)C(=O)O)COCCC(=O)N[C@H](Cc1c(CCCC(=O)O)[nH]c2ccccc12)C(=O)O)C(=O)O` [Compound 32], which CC50 (MT-4 cells) is on record?
Answer: > 50 µM

Question: What about the CC50 (rhabdosarcoma (RD) cells) of the same molecule?
Answer: > 100 µM

Question: Which CC50 at 5 days [4] does the source give for `O=C(CCOCC(COCCC(=O)Nc1cc(C(=O)O)cc(C(=O)O)c1)(COCCC(=O)Nc1cc(C(=O)O)cc(C(=O)O)c1)COCCC(=O)Nc1cc(C(=O)O)cc(C(=O)O)c1)Nc1cc(C(=O)O)cc(C(=O)O)c1` [Compound 35] here?
Answer: > 50 µM

Question: And the EC50 (EV-A71 BrCr strain [1]; RD cells)?
Answer: 8.48 ± 2.34 µM

Question: And the “SI selectivity index (CC50/EC50)” value (EV-A71 BrCr strain [1]; EV-A71 BrCr, RD cells)?
Answer: >12

Question: And the EC50 (EV-A71 BrCr strain [1]; [7])?
Answer: 8.5 µM

Question: What about the CC50 at 3 days [6] of the same molecule?
Answer: > 100 µM

Question: And the EC50 (HIV-2 (ROD); [8])?
Answer: > 50 µM

Question: What about the EC50 (HIV-1 (NL4.3) [5]; [9]) of the same molecule?
Answer: > 50 µM

Question: And the “activity against HIV-1” value (HIV-1 (NL4.3) [5]; at concentrations up to 50 µM)?
Answer: inactive

Question: For `O=C(CCOCC(COCCC(=O)NCCNC(=O)Nc1cc(C(=O)O)cc(C(=O)O)c1)(COCCC(=O)NCCNC(=O)Nc1cc(C(=O)O)cc(C(=O)O)c1)COCCC(=O)NCCNC(=O)Nc1cc(C(=O)O)cc(C(=O)O)c1)NCCNC(=O)Nc1cc(C(=O)O)cc(C(=O)O)c1` [Compound 40], which CC50 (MT-4 cells) is on record?
Answer: > 50 µM

Question: What about the CC50 (rhabdosarcoma (RD) cells) of the same molecule?
Answer: > 100 µM
